According to ChEMBL document CHEMBL1139626, “Total asymmetric synthesis of (-)-conduramine B-1 and of its enantiomer. N-Benzyl derivatives of conduramine B-1 are beta-glucosidase inhibitors” (Bioorg Med Chem Lett, 2005):
Activity calls are given as the source filed them. The calls are words filed in the database; no cut-off is given here.

Assays:
Beta-glucosidase A [1] = biological target: T1, Beta-glucosidase A (Caldicellulosiruptor saccharolyticus, UniProt P10482); test: Inhibitory concentration against Beta Glucosidase from Caldocellum saccharolyticum
T1 sequence (P10482 whole entry): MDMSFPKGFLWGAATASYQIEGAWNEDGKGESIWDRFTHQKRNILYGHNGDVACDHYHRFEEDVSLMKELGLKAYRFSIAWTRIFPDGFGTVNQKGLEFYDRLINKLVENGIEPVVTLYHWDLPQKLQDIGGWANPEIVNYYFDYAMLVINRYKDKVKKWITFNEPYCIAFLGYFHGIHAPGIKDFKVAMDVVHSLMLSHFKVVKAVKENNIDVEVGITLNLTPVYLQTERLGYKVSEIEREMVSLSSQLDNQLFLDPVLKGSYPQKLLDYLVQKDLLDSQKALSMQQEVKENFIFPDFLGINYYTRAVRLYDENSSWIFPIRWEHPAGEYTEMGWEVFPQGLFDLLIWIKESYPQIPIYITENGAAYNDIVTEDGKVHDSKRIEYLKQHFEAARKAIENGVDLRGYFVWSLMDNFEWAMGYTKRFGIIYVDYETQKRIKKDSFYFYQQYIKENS

[2] = Inhibitory concentration against Beta Glucosidase from Almonds; parameters: species or system Prunus dulcis
[3] = biological target: T2, Alpha-glucosidase (Oryza sativa Japonica Group) (UniProt Q9LGC6); test: Inhibition against Alpha Glucosidase from rice at 1 mM; (ni=no inhibition)
T2 sequence (whole entry): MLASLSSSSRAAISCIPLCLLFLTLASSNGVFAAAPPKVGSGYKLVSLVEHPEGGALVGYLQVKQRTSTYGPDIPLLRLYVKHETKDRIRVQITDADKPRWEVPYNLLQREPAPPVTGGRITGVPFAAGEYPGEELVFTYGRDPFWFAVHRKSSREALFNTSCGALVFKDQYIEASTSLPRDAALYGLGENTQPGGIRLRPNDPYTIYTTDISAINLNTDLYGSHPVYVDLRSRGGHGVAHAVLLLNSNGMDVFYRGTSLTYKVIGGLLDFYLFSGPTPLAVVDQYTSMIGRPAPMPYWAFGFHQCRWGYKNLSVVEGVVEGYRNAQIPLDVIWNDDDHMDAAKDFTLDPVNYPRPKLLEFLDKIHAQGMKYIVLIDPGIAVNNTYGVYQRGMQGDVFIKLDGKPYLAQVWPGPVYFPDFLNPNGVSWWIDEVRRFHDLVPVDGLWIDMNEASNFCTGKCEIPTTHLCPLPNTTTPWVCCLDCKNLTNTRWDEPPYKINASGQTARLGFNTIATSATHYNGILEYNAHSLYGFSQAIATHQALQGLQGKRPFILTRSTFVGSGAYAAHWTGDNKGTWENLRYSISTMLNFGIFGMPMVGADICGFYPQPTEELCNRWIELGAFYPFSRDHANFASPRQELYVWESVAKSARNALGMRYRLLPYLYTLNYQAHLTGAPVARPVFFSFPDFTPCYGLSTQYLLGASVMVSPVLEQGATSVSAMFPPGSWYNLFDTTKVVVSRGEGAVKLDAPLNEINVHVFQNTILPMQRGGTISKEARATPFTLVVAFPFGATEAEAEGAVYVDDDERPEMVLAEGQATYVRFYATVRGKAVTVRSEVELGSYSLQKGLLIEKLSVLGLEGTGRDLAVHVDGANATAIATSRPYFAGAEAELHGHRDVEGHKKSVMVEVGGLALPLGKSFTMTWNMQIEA

[4] = Inhibition against Alpha Glucosidase from yeast at 1 mM; (ni=no inhibition)
[5] = biological target: T3, Glucoamylase 1 (Rhizopus oryzae) (UniProt P07683); test: Percent inhibition against Amyloglucosidase from Rhizopus mold at 1 mM
T3 sequence (whole entry): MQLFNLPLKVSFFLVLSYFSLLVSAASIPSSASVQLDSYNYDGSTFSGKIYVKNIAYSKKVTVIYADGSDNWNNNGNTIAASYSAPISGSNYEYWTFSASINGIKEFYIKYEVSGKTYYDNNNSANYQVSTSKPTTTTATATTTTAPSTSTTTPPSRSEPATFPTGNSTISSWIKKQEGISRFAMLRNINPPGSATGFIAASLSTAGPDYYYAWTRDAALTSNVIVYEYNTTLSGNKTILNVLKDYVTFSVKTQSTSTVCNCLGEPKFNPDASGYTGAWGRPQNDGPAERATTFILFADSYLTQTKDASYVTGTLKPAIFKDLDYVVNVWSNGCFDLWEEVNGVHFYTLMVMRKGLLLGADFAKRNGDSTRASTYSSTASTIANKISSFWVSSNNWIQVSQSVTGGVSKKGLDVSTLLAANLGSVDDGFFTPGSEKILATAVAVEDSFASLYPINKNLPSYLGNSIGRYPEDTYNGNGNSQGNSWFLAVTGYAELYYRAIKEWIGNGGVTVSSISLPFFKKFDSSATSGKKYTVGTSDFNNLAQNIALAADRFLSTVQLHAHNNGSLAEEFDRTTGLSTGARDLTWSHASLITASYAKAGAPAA

[6] = biological target: Glucoamylase (Aspergillus niger) (UniProt P69328); test: Inhibition against Amyloglucosidase from Aspergillus niger at 1 mM; (ni=no inhibition)
Sequence of Glucoamylase (Aspergillus niger) (P69328 whole entry): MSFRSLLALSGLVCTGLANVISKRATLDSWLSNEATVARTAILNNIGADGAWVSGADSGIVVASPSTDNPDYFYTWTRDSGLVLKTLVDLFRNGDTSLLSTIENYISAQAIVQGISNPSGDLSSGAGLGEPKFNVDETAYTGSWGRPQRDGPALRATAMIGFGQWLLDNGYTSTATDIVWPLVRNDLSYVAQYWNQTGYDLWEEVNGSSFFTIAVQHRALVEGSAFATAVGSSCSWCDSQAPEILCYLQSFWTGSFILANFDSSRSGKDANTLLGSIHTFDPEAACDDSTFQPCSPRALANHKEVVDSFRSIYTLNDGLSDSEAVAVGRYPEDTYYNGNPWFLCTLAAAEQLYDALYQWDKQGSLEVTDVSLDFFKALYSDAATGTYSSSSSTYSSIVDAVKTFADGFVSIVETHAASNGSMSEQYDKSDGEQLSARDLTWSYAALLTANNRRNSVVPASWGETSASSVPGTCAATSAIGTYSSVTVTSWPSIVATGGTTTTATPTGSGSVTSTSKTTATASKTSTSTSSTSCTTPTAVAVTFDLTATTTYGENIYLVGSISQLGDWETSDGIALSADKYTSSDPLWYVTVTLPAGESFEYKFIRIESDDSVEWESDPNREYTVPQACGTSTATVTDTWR

[7] = biological target: T4, Exo-1,4-beta-xylosidase xlnD (Aspergillus niger) (UniProt O00089); test: Inhibition against Beta-xylosidase from Aspergillus niger at 1 mM; (ni=no inhibition)
T4 sequence (whole entry): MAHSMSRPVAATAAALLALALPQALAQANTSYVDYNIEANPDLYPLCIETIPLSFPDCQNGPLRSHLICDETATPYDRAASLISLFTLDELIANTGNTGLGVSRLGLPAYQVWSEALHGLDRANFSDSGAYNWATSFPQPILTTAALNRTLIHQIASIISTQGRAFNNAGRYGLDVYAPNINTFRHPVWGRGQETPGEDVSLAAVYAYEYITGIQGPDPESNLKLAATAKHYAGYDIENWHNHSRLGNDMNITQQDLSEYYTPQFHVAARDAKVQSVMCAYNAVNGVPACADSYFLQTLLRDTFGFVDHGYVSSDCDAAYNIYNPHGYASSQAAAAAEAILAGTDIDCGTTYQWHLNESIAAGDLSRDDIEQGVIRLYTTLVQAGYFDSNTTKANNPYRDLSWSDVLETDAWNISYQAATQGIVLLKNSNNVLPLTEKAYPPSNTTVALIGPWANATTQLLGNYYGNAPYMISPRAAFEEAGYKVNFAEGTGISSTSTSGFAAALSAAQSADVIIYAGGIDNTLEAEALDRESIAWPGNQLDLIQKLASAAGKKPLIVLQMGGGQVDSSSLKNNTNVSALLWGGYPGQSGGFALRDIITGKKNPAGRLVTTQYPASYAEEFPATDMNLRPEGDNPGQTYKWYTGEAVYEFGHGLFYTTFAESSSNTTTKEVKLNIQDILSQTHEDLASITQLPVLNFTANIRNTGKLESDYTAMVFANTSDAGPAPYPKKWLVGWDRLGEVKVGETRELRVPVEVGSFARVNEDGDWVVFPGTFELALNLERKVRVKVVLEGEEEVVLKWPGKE

Prunus dulcis [8] = test: Inhibition against Beta Glucosidase from Almonds at 1 mM
Prunus dulcis [9] = test: Percent inhibition against Beta Glucosidase from Almonds at 1 mM
[10] = biological target: T3, Glucoamylase 1 (Rhizopus oryzae); test: Inhibition against Amyloglucosidase from Rhizopus mold at 1 mM; (ni=no inhibition)
[11] = biological target: Beta-glucosidase A (Caldicellulosiruptor saccharolyticus) (UniProt P10482); test: Percent inhibition against Beta Glucosidase from Caldocellum saccharolyticum at 1 mM
Sequence of Beta-glucosidase A (Caldicellulosiruptor saccharolyticus) (P10482 whole entry): as the sequence (P10482 whole entry) above

[12] = biological target: T4, Exo-1,4-beta-xylosidase xlnD (Aspergillus niger); test: Inhibition against Beta-xylosidase from Aspergillus niger at 1 mM concentration
Beta-glucosidase A [13] = biological target: T1, Beta-glucosidase A; test: Inhibitory concentration against Beta Glucosidase Caldocellum saccharolyticum
[14] = Inhibitory activity against Beta Glucosidase from Almonds; parameters: species or system Prunus dulcis
[15] = Inhibitory concentration against Beta Glucosidase Almonds; parameters: species or system Prunus dulcis
[16] = Percent inhibition against Alpha Glucosidase from yeast at 1 mM
Prunus dulcis [17] = test: Inhibition against Beta Glucosidase from Almonds at 1 mM; (ni=no inhibition)
[18] = biological target: Beta-glucosidase A (Caldicellulosiruptor saccharolyticus) (UniProt P10482); test: Inhibition against Beta Glucosidase from Caldocellum saccharolyticum at 1 mM; (ni=no inhibition)
[19] = biological target: T4, Exo-1,4-beta-xylosidase xlnD (Aspergillus niger); test: Percent inhibition against Beta-xylosidase from Aspergillus niger at 1 mM
[20] = biological target: T4, Exo-1,4-beta-xylosidase xlnD (Aspergillus niger); test: Percent inhibition against Beta-xylosidase from Aspergillus niger at 1 mM; (ni=no inhibition)
[21] = biological target: Glucoamylase (Aspergillus niger) (UniProt P69328); test: Percent inhibition against Amyloglucosidase from Aspergillus niger at 1 mM concentration

**Q.** For `OC1C=CC(NCc2ccc(Cl)cc2)C(O)C1O` (stereo in doubt; 4h), which IC50 (Beta-glucosidase A [1]) is on record?
**A.** Its IC50 is 185 µM.

**Q.** What about the IC50 [2] of the same molecule?
**A.** Its IC50 is 35 µM.

**Q.** For `CCCNC1C=CC(O)C(O)C1O` (racemic), which inhibition [3] is on record?
**A.** Its inhibition is “inactive”.

**Q.** What about the inhibition [4] of the same molecule?
**A.** The inhibition was “inactive”.

**Q.** What about the inhibition [5] of the same molecule?
**A.** The inhibition was 30%.

**Q.** And the inhibition [6]?
**A.** Its inhibition is “inactive”.

**Q.** And the IC50 [2]?
**A.** The IC50 was 66 µM.

**Q.** And the inhibition [7]?
**A.** Its inhibition is “inactive”.

**Q.** What about the inhibition (Prunus dulcis [8]) of the same molecule?
**A.** The inhibition was 80%.

**Q.** Which results are given for `OC1C=CC(NCc2ccccc2)C(O)C1O` (stereo in doubt; 4e)?
**A.** inhibition (Prunus dulcis [9]): 96%; inhibition [3]: inactive; inhibition [4]: inactive; inhibition [6]: inactive; inhibition [10]: inactive; inhibition [11]: 43%; inhibition [12]: 74%

**Q.** What does the source list for `OC1C=CC(NCc2ccc(-c3ccccc3)cc2)C(O)C1O` (stereo in doubt; 4i)?
**A.** IC50 (Beta-glucosidase A [13]): 35 µM; IC50 [2]: 32 µM; Ki [14]: 8 µM

**Q.** Which results are given for `CCCCCCCCNC1C=CC(O)C(O)C1O` (racemic)?
**A.** inhibition (Prunus dulcis [9]): 85%; inhibition [3]: inactive; inhibition [4]: inactive; IC50 [15]: 69 µM; inhibition [6]: inactive; inhibition [7]: inactive; inhibition [10]: inactive

**Q.** With `Oc1ccccc1CNC1C=CC(O)C(O)C1O` (stereo in doubt; 4k) as the molecule, how does the inhibition [3] read?
**A.** The inhibition was “inactive”.

**Q.** And the inhibition [5]?
**A.** The inhibition was 29%.

**Q.** What about the inhibition [6] of the same molecule?
**A.** Its inhibition is “inactive”.

**Q.** And the inhibition [16]?
**A.** Its inhibition is 41%.

**Q.** What about the inhibition [7] of the same molecule?
**A.** The inhibition was “inactive”.

**Q.** What about the inhibition (Prunus dulcis [17]) of the same molecule?
**A.** The inhibition was “inactive”.

**Q.** And the inhibition [18]?
**A.** Its inhibition is “inactive”.

**Q.** With `COc1ccc(CNC2C=CC(O)C(O)C2O)cc1` (stereo in doubt; 4g) as the molecule, how does the inhibition (Prunus dulcis [9]) read?
**A.** The inhibition was 95%.

**Q.** And the inhibition [3]?
**A.** Its inhibition is “inactive”.

**Q.** And the inhibition [4]?
**A.** Its inhibition is “inactive”.

**Q.** What about the inhibition [6] of the same molecule?
**A.** The inhibition was “inactive”.

**Q.** What about the inhibition [10] of the same molecule?
**A.** The inhibition was “inactive”.

**Q.** And the inhibition [19]?
**A.** The inhibition was 74%.

**Q.** What about the inhibition [11] of the same molecule?
**A.** The inhibition was 68%.

**Q.** With `OC1C=CC(NCc2ccc(Oc3ccccc3)cc2)C(O)C1O` (stereo in doubt; 4j) as the molecule, how does the IC50 (Beta-glucosidase A [1]) read?
**A.** The IC50 was 52 µM.

**Q.** And the IC50 [2]?
**A.** Its IC50 is 43 µM.

**Q.** And the Ki [14]?
**A.** Its Ki is 13 µM.

**Q.** Which inhibition (Prunus dulcis [9]) does the source give for `Oc1ccc(CNC2C=CC(O)C(O)C2O)cc1` (stereo in doubt; 4f) here?
**A.** Its inhibition is 93%.

**Q.** And the inhibition [3]?
**A.** Its inhibition is “inactive”.

**Q.** And the inhibition [4]?
**A.** Its inhibition is “inactive”.

**Q.** What about the inhibition [5] of the same molecule?
**A.** Its inhibition is 57%.

**Q.** What about the inhibition [20] of the same molecule?
**A.** The inhibition was 67%.

**Q.** And the inhibition [21]?
**A.** The inhibition was 31%.

**Q.** What about the inhibition [11] of the same molecule?
**A.** The inhibition was 56%.
